One experiment deals with T1, M1 muscarinic receptor (Homo sapiens, UniProt P11229).
T1 construct: expressed in transfected cells; host or cells: CHO (M1-CHO recombinant cell line)
T1 sequence (P11229 1-460): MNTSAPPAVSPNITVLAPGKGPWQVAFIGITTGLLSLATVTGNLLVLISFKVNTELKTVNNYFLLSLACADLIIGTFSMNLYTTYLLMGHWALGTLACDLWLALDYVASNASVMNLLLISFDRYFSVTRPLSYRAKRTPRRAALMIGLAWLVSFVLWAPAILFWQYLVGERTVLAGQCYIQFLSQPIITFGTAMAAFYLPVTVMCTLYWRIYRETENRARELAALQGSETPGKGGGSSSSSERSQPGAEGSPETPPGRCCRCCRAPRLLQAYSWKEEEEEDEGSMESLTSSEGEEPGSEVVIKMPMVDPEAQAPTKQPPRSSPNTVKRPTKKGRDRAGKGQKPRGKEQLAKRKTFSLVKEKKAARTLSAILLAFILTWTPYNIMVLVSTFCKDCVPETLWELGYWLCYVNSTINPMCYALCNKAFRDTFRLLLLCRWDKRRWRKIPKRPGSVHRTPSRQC
Description: Functional mobilization of intracellular calcium (FLIPR) in CHO cells expressing M1 muscarinic receptor. It is filed as cell-based. The following applies: for M1 Activity: CHO cells expressing M1, calcium mobilization; for Emax: CHO, 100% efficacy is the maximum response obtained with the Carbachol control. The essentials:
(§1)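 CHO cells loaded with Fluo-3 or Calcium 3 dye in pH 7.4 bath buffer with 1 mM probenecid, 0.5% DMSO. Agonist mode: compound added directly; inhibition mode: 15 min pre-incubation, then carbachol at EC80 (or co-application). Fluorescence recorded 60 s on FLIPR; efficacy relative to carbachol maximum.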
(In general: A change in cytosolic calcium serves as a functional read-out for many receptors and channels.)

For another experiment, the target named is T2, M4 muscarinic receptor (Homo sapiens, UniProt P08173).
T2 construct: expressed in transfected cells; host or cells: CHO (M4-CHO recombinant cell line)
T2 sequence (P08173 1-479): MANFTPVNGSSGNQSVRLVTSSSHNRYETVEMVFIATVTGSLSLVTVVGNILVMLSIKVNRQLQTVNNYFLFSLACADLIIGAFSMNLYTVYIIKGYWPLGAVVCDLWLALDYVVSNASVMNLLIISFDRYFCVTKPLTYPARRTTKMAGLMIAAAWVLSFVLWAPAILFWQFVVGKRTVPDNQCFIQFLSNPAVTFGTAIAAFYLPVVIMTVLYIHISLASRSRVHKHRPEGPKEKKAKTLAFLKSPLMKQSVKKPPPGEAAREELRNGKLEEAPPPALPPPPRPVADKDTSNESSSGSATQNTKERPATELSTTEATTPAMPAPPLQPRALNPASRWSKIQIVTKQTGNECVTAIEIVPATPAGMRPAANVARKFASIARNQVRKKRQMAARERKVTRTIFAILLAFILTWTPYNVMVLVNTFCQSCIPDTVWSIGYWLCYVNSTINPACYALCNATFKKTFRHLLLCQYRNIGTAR
Description: Functional mobilization of intracellular calcium (FLIPR) in CHO cells expressing M4 muscarinic receptor. The class given is cell-based. To be noted: for M4 Activity: CHO cells expressing M4, calcium mobilization; for Emax: CHO, 100% efficacy is the maximum response obtained with the Carbachol control. Summed up:
as §1

Usually Emax stands for the greatest response seen or fitted, relative to the assay's reference.

Turning to `CN(C)C(=O)C1=CC2(CCN(CCC(C)(C)C)CC2)c2ccccc21` [compound 56], on M1 muscarinic receptor, the “M1 Activity” value is listed as “+ (activity was measured to be greater than 10.0 μM)” and the Emax was below 25%. On M4 muscarinic receptor, the “M4 Activity” value is on record as “+++ (activity was measured to be less than 2.0 μM)” and the Emax is 25 to 100%.
The like results for `CCC(CC)NC(=O)C1=CC2(CCNCC2)c2ccccc21` [compound 57] were, in that order, “+ (activity was measured to be greater than 10.0 μM)”, below 25%, “+ (activity was measured to be greater than 10.0 μM)” and below 25%.
In the same order, the values of `CNC(=O)C1=CC2(CCN(C3CCCCC3)CC2)c2ccccc21` [compound 58] are “+ (activity was measured to be greater than 10.0 μM)”, 25 to 100%, “+++ (activity was measured to be less than 2.0 μM)” and 25 to 100%.
The like results for `CN(C)C(=O)C1=CC2(CCN(CC3CCCCC3)CC2)c2ccccc21` [compound 59] were, in that order, “+ (activity was measured to be greater than 10.0 μM)”, below 25%, “+++ (activity was measured to be less than 2.0 μM)” and 25 to 100%.
As to `CCOC(=O)N1CCC(N2CCC3(C=C(C(=O)N(C)C)c4ccccc43)CC2)CC1` [compound 60], on M1 muscarinic receptor, the “M1 Activity” value is reported as “+++ (activity was measured to be less than 2.0 μM)” and the Emax was in the range of 25 to 100%. Also, on M4 muscarinic receptor, the “M4 Activity” value was “+++ (activity was measured to be less than 2.0 μM)” and the Emax lay in the range of 25 to 100%.
As for `CN(C)C(=O)C1=CC2(CCN(C3CCCCC3)CC2)c2ccccc21` [compound 61], at M1 muscarinic receptor, the “M1 Activity” value was “+ (activity was measured to be greater than 10.0 μM)” and the Emax is below 25%. At M4 muscarinic receptor, the “M4 Activity” value is “+++ (activity was measured to be less than 2.0 μM)” and the Emax was in the range of 25 to 100%.
In the same order, the values of `CCOC(=O)C1=CC2(CCN(CCC(C)(C)C)CC2)c2ccccc21` [compound 62] are “+ (activity was measured to be greater than 10.0 μM)”, 25 to 100%, “+++ (activity was measured to be less than 2.0 μM)” and 25 to 100%.
For the compound `CCOC(=O)N1CCC(N2CCC3(CC=C(C#N)c4ccccc43)CC2)CC1` [compound 63], on M1 muscarinic receptor, the “M1 Activity” value is “+++ (activity was measured to be less than 2.0 μM)” and the Emax was 25 to 100%. Also, at M4 muscarinic receptor, the “M4 Activity” value is recorded as “+++ (activity was measured to be less than 2.0 μM)” and the Emax lay within 25 to 100%.
Consider `CN(C)C(=O)C1=CC2(CCN(C3C[C@@H]4CC[C@@H]3C4)CC2)c2ccccc21` (stereo partly drawn) [compound 64], for which, on M1 muscarinic receptor, the “M1 Activity” value was “+ (activity was measured to be greater than 10.0 μM)” and the Emax is below 25%. Also, on M4 muscarinic receptor, the “M4 Activity” value is on record as “+++ (activity was measured to be less than 2.0 μM)” and the Emax lay in the range of 25 to 100%.
In the same order, the values of `CCOC(=O)N1CCC(N2CCC3(C=C(C(=O)NC)c4ccccc43)CC2)CC1` [compound 65] are “+++ (activity was measured to be less than 2.0 μM)”, 25 to 100%, “+++ (activity was measured to be less than 2.0 μM)” and 25 to 100%.
The like results for `CC(C)NC(=O)C1=CC2(CCN(CC3CC4C=CC3C4)CC2)c2ccccc21` (stereo not drawn) [compound 66] were, in that order, “+ (activity was measured to be greater than 10.0 μM)”, below 25%, “+++ (activity was measured to be less than 2.0 μM)” and 25 to 100%.
As for `CN(C)C(=O)C1=CC2(CCN(CC3CC4C=CC3C4)CC2)c2ccccc21` (stereo not drawn) [compound 67], at M1 muscarinic receptor, the “M1 Activity” value is “+ (activity was measured to be greater than 10.0 μM)” and the Emax was 25 to 100%. In addition, at M4 muscarinic receptor, the “M4 Activity” value is “+++ (activity was measured to be less than 2.0 μM)” and the Emax was 25 to 100%.
In the case of `CNC(=O)C1=CC2(CCN(CC3CC4C=CC3C4)CC2)c2ccccc21` (stereo not drawn) [compound 69], at M1 muscarinic receptor, the “M1 Activity” value was “+++ (activity was measured to be less than 2.0 μM)” and the Emax fell in the range of 25 to 100%. On M4 muscarinic receptor, the “M4 Activity” value is “+++ (activity was measured to be less than 2.0 μM)” and the Emax fell in the range of 25 to 100%.
On to `CC(C)NC(=O)C1=CC2(CCN(CCC(C)(C)C)CC2)c2ccccc21` [compound 70], for which, on M1 muscarinic receptor, the “M1 Activity” value is given as “+ (activity was measured to be greater than 10.0 μM)” and the Emax fell in the range of 25 to 100%. On M4 muscarinic receptor, the “M4 Activity” value was “+ (activity was measured to be greater than 10.0 μM)” and the maximal effect (Emax) is 25 to 100%.
As to `CCC(CC)NC(=O)C1=CC2(CCN(C3CCN(C(=O)OC)CC3)CC2)c2ccccc21` [compound 71], on M1 muscarinic receptor, the “M1 Activity” value is “+ (activity was measured to be greater than 10.0 μM)” and the Emax is below 25%. For the same compound, on M4 muscarinic receptor, the “M4 Activity” value is on record as “+++ (activity was measured to be less than 2.0 μM)” and the maximum response (Emax) lay within 25 to 100%.
As to `CCOC(=O)N1CCC(N2CCC3(CC=C(C(=O)NC(C)C)c4ccccc43)CC2)CC1` [compound 72], on M1 muscarinic receptor, the “M1 Activity” value is “+++ (activity was measured to be less than 2.0 μM)” and the Emax was 25 to 100%. Further, on M4 muscarinic receptor, the “M4 Activity” value is given as “+++ (activity was measured to be less than 2.0 μM)” and the Emax lay in the range of 25 to 100%.
For `CCC(CC)NC(=O)C1=CC2(CCN(C3CCCCC3)CC2)c2ccccc21` [compound 73], on M1 muscarinic receptor, the “M1 Activity” value is on record as “+ (activity was measured to be greater than 10.0 μM)” and the Emax is below 25%. Besides, at M4 muscarinic receptor, the “M4 Activity” value is given as “++ (activity was measured to be from 2.0 μM to 10.0 μM)” and the maximum response (Emax) was 25 to 100%.
The like results for `CN(C)C(=O)C1=CCC2(CCN(C3C[C@@H]4CC[C@@H]3C4)CC2)c2ccccc21` (stereo partly drawn) [compound 74] were, in that order, “+ (activity was measured to be greater than 10.0 μM)”, below 25%, “++ (activity was measured to be from 2.0 μM to 10.0 μM)” and below 25%.
The like results for `CCOC(=O)N1C2CCC1CC(N1CCC3(C=C(C(=O)NC(CC)CC)c4ccccc43)CC1)C2` (stereo not drawn) [compound 75] were, in that order, “++ (activity was measured to be from 2.0 μM to 10.0 μM)”, 25 to 100%, “+++ (activity was measured to be less than 2.0 μM)” and 25 to 100%.
The like results for `CCC(CC)NC(=O)C1=CC2(CCN(CCC3CCSCC3)CC2)c2ccccc21` [compound 76] were, in that order, “+ (activity was measured to be greater than 10.0 μM)”, below 25%, “+ (activity was measured to be greater than 10.0 μM)” and below 25%.
`CC(C)(C)CCN1CCC2(C=C(C(=O)NC3CCCC3)c3ccccc32)CC1` [compound 77]: at M1 muscarinic receptor, the “M1 Activity” value was “+ (activity was measured to be greater than 10.0 μM)” and the Emax lay in the range of 25 to 100%. In addition, on M4 muscarinic receptor, the “M4 Activity” value is “+ (activity was measured to be greater than 10.0 μM)” and the Emax was below 25%.
